Data taken from patent US20220363665A1, “QUINOLINE COMPOUNDS FOR THE TREATMENT OF AUTOIMMUNE DISEASE” (Hoffmann-La Roche Inc., priority 2019, published 2022).

Experiments:
Format in all cases: in vitro ADME
[1] = Human microsome stability assay; conditions: 1 μM test compound, 0.5 mg/mL protein
Protocol: The human microsomal stability assay is used for early assessment of metabolic stability of a test compound in human liver microsomes.
Human liver microsomes (Cat. NO.: 452117, Corning, USA; Cat. NO.: H2610, Xenotech, USA) were preincubated with test compound for 10 minutes at 37° C. in 100 mM potassium phosphate buffer, pH 7.4. The reactions were initiated by adding NADPH regenerating system. The final incubation mixtures contained 1 μM test compound, 0.5 mg/mL liver microsomal protein, 1 mM MgCl2, 1 mM NADP, 1 unit/mL isocitric dehydrogenase and 6 mM isocitric acid in 100 mM potassium phosphate buffer, pH 7.4. After incubation times of 0, 3, 6, 9, 15 and 30 minutes at 37° C., 300 μL of cold ACN (including internal standard) was added to 100 μL incubation mixture to terminate the reaction. Following precipitation and centrifugation, the amount of compound remaining in the samples were determined by LC-MS/MS. Controls of no NADPH regenerating system at zero and 30 minutes were also prepared and analyzed. The results were categorized as: low (<7.0 mL/min/kg), medium (7.0˜16.2 mL/min/kg) and high (16.2-23.2 mL/min/kg).

CYP2C9 = target: T1, CYP2C9 (Homo sapiens, UniProt P11712); experiment: CYP inhibition assay in human liver microsome, CYP2C9; conditions: HLM, diclofenac substrate; for inhibition at 5 min, 10 µM: human, liver microsomes, probe diclofenac, read-out: CYP inhibition % @10 uM (2C9)
T1 construct: tissue BD-Gentest 452117; host or cells: human liver microsomes
Protocol: (§1) This is a high throughput screening assay used for assessment of reversible inhibition of CYP2C9, CYP2D6, and CYP3A4 activity of test compounds in human liver microsome (HLM) in early discovery stage.
(§2) 10 mM DMSO stock solutions of test compounds were diluted in DMSO to generate 2 mM intermediate stock solution. 250 nL of intermediate stock solution were transferred in duplicate into 3 separate 384 well microtitre plates (assay-ready plates). A mixture of HLM and each substrate was made up. 45 μL of HLM substrate mix was then transferred to each well of an assay ready plate and mixed. The negative (solvent) and positive controls (standard inhibitor for each CYP) were included in each assay ready plate. The assay ready plate was warmed to 37° C. in an incubator over 10 minutes. 5 μL pre-warmed NADPH regenerating system was added to each incubation well to start the reaction. Final incubation volume was 50 μL. The assay plate then was placed back in the 37° C. incubator. After 5 minutes incubation (10 minutes for CYP2D6), incubates were quenched by addition of 50 μL quench reagent containing internal standards (400 ng/mL 13C6-4′-OH-Diclofenac, 20 ng/mL D3-Dextrorphan and 20 ng/mL D4-1′OH-Midazolam in acetonitrile). The supernatants were collected for RapidFire/MS/MS analysis.
(§3) RapidFire online solid phase extraction/sample injection system (Agilent) coupled with API4000 triple quadrupole mass spectrometer (AB Sciex) were used for sample analysis. The mobile phase composed of acetonitrile and water supplemented with 0.1% formic acid. A C4 solid phase extraction cartridge is used for sample separation. MS detection is achieved in positive ion MRM mode.
(§4) Peak areas for substrate, metabolite and internal standard are determined using the
(§5) RapidFire integrator software (version 3.6.12009.12296). Peak area ratios (PAR) of metabolite and internal standard (stable-labelled metabolite) are then calculated. The measurement window for each experiment is then defined:
(§6) PAR (0% activity)=average PAR for all incubations containing concentrated inhibitor;
(§7) Par (100% activity)=average PAR for all incubations containing no inhibitor (DMSO controls);
(§8) % Activity (test inhibitor) =[PAR(test inhibitor)-PAR(0% activity)][PAR(100% activity)-PAR(0% activity)];
(§9) % Inhibition (test inhibitor)=100-% Activity (test inhibitor).
(§10) Percentage inhibition data are then reported, in duplicate, for the 3 CYP enzymes.

CYP2D6 = target: T2, CYP2D6 (Homo sapiens, UniProt P10635); experiment: CYP inhibition assay in human liver microsome, CYP2D6; conditions: HLM, dextromethorphan substrate; for inhibition at 10 min, 10 µM: human, liver microsomes, probe dextromethorphan, read-out: CYP inhibition % @10 uM (2D6)
T2 construct: tissue BD-Gentest 452117; host or cells: human liver microsomes
Protocol: as §1, §2, §3, §4, §5, §6, §7, §8, §9, §10

T2 sequence (P10635 whole entry): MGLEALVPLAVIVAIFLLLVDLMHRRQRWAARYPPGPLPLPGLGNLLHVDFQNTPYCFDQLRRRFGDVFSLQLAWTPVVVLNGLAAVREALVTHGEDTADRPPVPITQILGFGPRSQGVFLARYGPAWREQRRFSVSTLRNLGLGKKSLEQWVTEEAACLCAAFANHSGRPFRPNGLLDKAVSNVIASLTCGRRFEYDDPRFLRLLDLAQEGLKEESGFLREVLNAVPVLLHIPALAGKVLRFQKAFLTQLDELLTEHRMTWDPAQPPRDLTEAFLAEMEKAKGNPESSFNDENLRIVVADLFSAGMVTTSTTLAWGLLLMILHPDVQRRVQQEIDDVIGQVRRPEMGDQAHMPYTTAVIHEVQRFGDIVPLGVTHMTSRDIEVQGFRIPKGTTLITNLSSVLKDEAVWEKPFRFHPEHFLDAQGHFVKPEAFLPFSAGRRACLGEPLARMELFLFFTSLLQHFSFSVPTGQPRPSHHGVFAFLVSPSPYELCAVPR
T1 sequence (P11712 whole entry): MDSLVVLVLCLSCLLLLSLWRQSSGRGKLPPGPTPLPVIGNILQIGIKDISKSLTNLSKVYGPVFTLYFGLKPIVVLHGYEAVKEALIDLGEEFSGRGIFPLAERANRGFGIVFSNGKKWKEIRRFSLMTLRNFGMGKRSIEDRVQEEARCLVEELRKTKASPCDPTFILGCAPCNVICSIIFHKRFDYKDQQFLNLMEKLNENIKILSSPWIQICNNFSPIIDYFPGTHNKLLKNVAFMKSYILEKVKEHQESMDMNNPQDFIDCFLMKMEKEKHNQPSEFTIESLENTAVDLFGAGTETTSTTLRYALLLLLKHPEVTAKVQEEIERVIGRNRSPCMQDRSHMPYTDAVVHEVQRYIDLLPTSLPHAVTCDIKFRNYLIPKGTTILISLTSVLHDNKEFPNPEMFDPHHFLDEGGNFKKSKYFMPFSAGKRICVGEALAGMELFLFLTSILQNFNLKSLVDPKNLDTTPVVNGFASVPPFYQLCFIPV

| Structure (SMILES) | clearance in human liver microsomes [1] | inhibition at 5 min, 10 µM (CYP2C9) | inhibition at 10 min, 10 µM (CYP2D6) | CYP inhibition % @10 uM (2D6) (CYP2D6) | CYP inhibition % @10 uM (2C9) (CYP2C9) |
| --- | --- | --- | --- | --- | --- |
| C[C@@H]1CN(c2ccc(C(F)(F)F)c3ncccc23)C[C@H](C(=O)N[C@@H]2CNC[C@@H]2F)O1 (single isomer, unassigned) [Example 2A] | 6.15 mL/min/kg | 26% | 9% | – | – |
| C[C@@H]1CN(c2ccc(C(F)(F)F)c3ncccc23)C[C@H](C(=O)N[C@H]2CNC[C@H]2F)O1 (single isomer, unassigned) [Example 2B] | 6.15 mL/min/kg | – | – | – | – |
| C[C@H]1C[C@@H](N)CN(c2ccc(C(F)(F)F)c3ncccc23)C1 [Example 1, (3R,5S)-5-methyl-1-[8-(trifluoromethyl)-5-quinolyl]piperidin-3-amine] | 6.15 mL/min/kg | – | – | – | – |
| C[C@@H]1CN(c2ccc(C(F)(F)F)c3ncccc23)C[C@H](C(=O)NC2CNC[C@@H]2F)O1 (stereo partly drawn) [Example 2, cis-(2R,6R)-N-(4-fluoropyrrolidin-3-yl)-6-methyl-4-[8-(trifluoromethyl)-5-quinolyl]morpholine-2-carboxamide] | 6.15 mL/min/kg | – | – | – | – |
| C[C@@H]1CN(c2ccc(C(F)(F)F)c3ncccc23)C[C@H](C(=O)NCC2CN(C)CCO2)O1 (stereo partly drawn) [Example 3, (2R,6R)-6-methyl-N-[(4-methylmorpholin-2-yl)methyl]-4-[8-(trifluoromethyl)-5-quinolyl]morpholine-2-carboxamide] | – | -1% | 16% | – | – |
| C[C@@H]1CN(c2ccc(C(F)(F)F)c3ncccc23)C[C@H](C(=O)NCC2CCCCN2C)O1 (stereo partly drawn) [Example 4, (2R,6R)-6-methyl-N-[(1-methyl-2-piperidyl)methyl]-4-[8-(trifluoromethyl)-5-quinolyl]morpholine-2-carboxamide] | – | -12% | 10% | – | – |
| C[C@@H]1CN(c2ccc(C(F)(F)F)c3ncccc23)C[C@H](C(=O)N2CC(N)C2)O1 [Example 7, (3-aminoazetidin-1-yl)-[(2R,6R)-6-methyl-4-[8-(trifluoromethyl)-5-quinolyl]morpholin-2-yl]methanone] | 6.15 mL/min/kg | – | – | – | – |
| C[C@@H]1CN(c2ccc(C(F)(F)F)c3ncccc23)C[C@H](C(=O)NC2CN(C)CC23CC3)O1 (stereo partly drawn) [Example 9, (2R,6R)-6-methyl-N-(5-methyl-5-azaspiro[2.4]heptan-7-yl)-4-[8-(trifluoromethyl)-5-quinolyl]morpholine-2-carboxamide] | – | 2% | 6% | – | – |
| C[C@@H]1CN(c2ccc(C(F)(F)F)c3ncccc23)C[C@H](C(=O)NCC2COCCN2C)O1 (stereo partly drawn) [Example 11, (2R,6R)-6-methyl-N-[(4-methylmorpholin-3-yl)methyl]-4-[8-(trifluoromethyl)-5-quinolyl]morpholine-2-carboxamide] | – | -4% | 5% | – | – |
| C[C@@H]1CN(c2ccc(C(F)(F)F)c3ncccc23)C[C@H](C(=O)NCCN2CCOCC2)O1 [Example 13, (2R,6R)-6-methyl-N-(2-morpholinoethyl)-4-[8-(trifluoromethyl)-5-quinolyl]morpholine-2-carboxamide] | – | 1% | 0% | – | – |
| C[C@@H]1CN(c2ccc(C(F)(F)F)c3ncccc23)C[C@H](C(=O)NC2CNCCOC2)O1 (stereo partly drawn) [Example 14, (2R,6R)-6-methyl-N-(1,4-oxazepan-6-yl)-4-[8-(trifluoromethyl)-5-quinolyl]morpholine-2-carboxamide] | – | -2% | -1% | – | – |
| C[C@@H]1CN(c2ccc([N+](=O)[O-])c3ncccc23)C[C@H](C(=O)NCC2CN(C)CCO2)O1 (stereo partly drawn) [Example 18, (2R,6R)-6-methyl-N-[(4-methylmorpholin-2-yl)methyl]-4-(8-nitro-5-quinolyl)morpholine-2-carboxamide] | – | -4% | 0% | – | – |
| C[C@@H]1CN(c2ccc([N+](=O)[O-])c3ncccc23)C[C@H](C(=O)NC2CCN(C)CC2)O1 [Example 20, (2R,6R)-6-methyl-N-(1-methyl-4-piperidyl)-4-(8-nitro-5-quinolyl)morpholine-2-carboxamide] | – | -6% | -12% | – | – |

The remaining lines, values ahead:

| clearance in human liver microsomes [1] | inhibition at 5 min, 10 µM (CYP2C9) | inhibition at 10 min, 10 µM (CYP2D6) | CYP inhibition % @10 uM (2D6) (CYP2D6) | CYP inhibition % @10 uM (2C9) (CYP2C9) | Structure (SMILES) |
| --- | --- | --- | --- | --- | --- |
| – | 10% | – | 8% | – | CC(NC(=O)[C@H]1CN(c2ccc(C(F)(F)F)c3ncccc23)C[C@@H](C)O1)C1CN(C)CCO1 (single isomer, unassigned) [Example 35A] |
| – | – | – | 2% | 6% | CC(NC(=O)[C@H]1CN(c2ccc(C(F)(F)F)c3ncccc23)C[C@@H](C)O1)C1CN(C)CCO1 (single isomer, unassigned) [Example 35B] |
| – | – | – | 2% | −1% | C[C@@H]1CN(c2ccc(C(F)(F)F)c3ncccc23)C[C@H](C(=O)NC2CC3CNCC32)O1 (single isomer, unassigned) [Example 49A] |
| – | -17% | -10% | – | – | Cc1ccc(N2C[C@@H](C)C[C@@H](N)C2)c2cccnc12 [Example 15, (3R,5S)-5-methyl-1-(8-methyl-5-quinolyl)piperidin-3-amine] |
| 6.15 mL/min/kg | – | – | – | – | C[C@@H]1CN(c2ccc(Cl)c3ncccc23)C[C@H](C(=O)N[C@H]2CNC[C@H]2F)O1 [Example 22, (2R,6R)-4-(8-chloro-5-quinolyl)-N-[(3S,4R)-4-fluoropyrrolidin-3-yl]-6-methyl-morpholine-2-carboxamide] |
| – | 23% | 2% | – | – | C[C@@H]1CN(c2ccc(C(F)(F)F)c3ncccc23)C[C@H](C(=O)NC2CNCC(F)(F)C2)O1 (stereo partly drawn) [Example 28, (2R,6R)-N-(5,5-difluoro-3-piperidyl)-6-methyl-4-[8-(trifluoromethyl)-5-quinolyl]morpholine-2-carboxamide] |
| – | 20% | 20% | – | – | C[C@@H]1CN(c2ccc(C(F)(F)F)c3ncccc23)C[C@H](C(=O)NC[C@@H]2CC(F)(F)CN2)O1 [Example 30] |
| – | -8% | -22% | – | – | C[C@@H]1CN(c2ccc(C(F)(F)F)c3ncccc23)C[C@H](C(=O)N2CCC3(CCNCC3)CC2)O1 [Example 32, 3,9-diazaspiro[5.5]undecan-3-yl-[(2R,6R)-6-methyl-4-[8-(trifluoromethyl)-5-quinolyl]morpholin-2-yl]methanone] |
| – | 1% | -10% | – | – | C[C@@H]1CN(c2ccc(C(F)(F)F)c3ncccc23)C[C@H](C(=O)N2CCC3(CCNC3)C2)O1 (stereo partly shown) [Example 36] |
| – | 4% | 3% | – | – | C[C@@H]1CN(c2ccc(C(F)(F)F)c3ncccc23)C[C@H](C(=O)NC2CC3CNCC(C3)C2)O1 (stereo partly drawn) [Example 37, (2R,6R)-N-(3-azabicyclo[3.3.1]nonan-7-yl)-6-methyl-4-[8-(trifluoromethyl)-5-quinolyl]morpholine-2-carboxamide] |
| – | -7% | 5% | – | – | C[C@@H]1CN(c2ccc(I)c3ncccc23)C[C@H](C(=O)NCC2CN(C)CCO2)O1 (stereo partly drawn) [Example 39, (2R,6R)-4-(8-iodo-5-quinolyl)-6-methyl-N-[(4-methylmorpholin-2-yl)methyl]morpholine-2-carboxamide] |
| – | -4% | -3% | – | – | C[C@@H]1CN(c2ccc(Br)c3ncccc23)C[C@H](C(=O)NC2CCN(C)CC2)O1 [Example 42, (2R,6R)-4-(8-bromo-5-quinolyl)-6-methyl-N-(1-methyl-4-piperidyl)morpholine-2-carboxamide] |
